Experiments:
[1] = molecular target: PHD2 enzyme (residues 181-417) (Homo sapiens (Human), UniProt Q9GZT9); assay: Inhibition of PHD enzyme (LC/MS peptide hydroxylation assay); assay type: biochemical; details: PHD2 (residues 181-417) 5 nM, 60 min pre-incubation; -log(IC50), IC50 molar
Procedure, shortened: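 PHD2 (5 nM final) preincubated with inhibitor 60 min at RT in 50 mM HEPES, 50 mM KCl, 0.5 mM TCEP, 2 uM FeCl2, 0.1 mg/ml BSA, pH 7.3. Reaction started with biotin-peptide (1 uM), 2-oxoglutarate (2 uM), ascorbate (1 mM), quenched at 60 min; hydroxylated product by LC/MS, reported as pIC50.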

[2] = system: HIF1a protein in H9c2 rat cardiomyocytes; assay: Cell-based HIF-alpha stabilization assay (inhibition of PHD in cells); details: 24 hrs compound incubation, HIF1a protein by ELISA; for EC50: Rattus norvegicus, H9c2, 24 h, read-out: Inhibition of PHD in cells (pEC50) (converted)
Procedure, shortened: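 Rat H9c2 cardiomyocytes, cultured 24 h, were treated 24 h with an 11-point serial dilution of compound. HIF1a in whole-cell lysates was quantified by ELISA as % of the maximal desferrioxamine response. EC50 came from curve fitting; EC50pos is the concentration reaching 50% of the desferrioxamine maximum.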

Chain of PHD2 enzyme (residues 181-417) (Q9GZT9 181-417): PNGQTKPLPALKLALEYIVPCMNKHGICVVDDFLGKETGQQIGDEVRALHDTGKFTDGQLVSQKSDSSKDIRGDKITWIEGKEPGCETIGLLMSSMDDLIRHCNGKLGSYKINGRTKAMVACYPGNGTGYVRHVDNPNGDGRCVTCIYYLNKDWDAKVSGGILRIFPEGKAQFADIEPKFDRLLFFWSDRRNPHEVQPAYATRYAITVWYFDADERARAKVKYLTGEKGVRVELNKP

## COC[C@H]1CCC[C@H]1NC(=O)c1ccc(-n2ncc(-c3ccnc(OC)c3)c2O)nc1 [Example 45, 6-(5-hydroxy-4-(2-methoxypyridin-4-yl)-1H-pyrazol-1-yl)-N-((1R,2S)-2-(methoxymethyl)cyclopentyl)nicotinamide]
[1]
  PHD Inhibition (pIC50): 8
[2]
  EC50: 562 nM

## COc1cc(-c2cnn(-c3ccc(C(=O)NCC4CN(C)CCO4)cn3)c2O)ccn1 (centres unmarked) [Example 46, 6-(5-hydroxy-4-(2-methoxypyridin-4-yl)-1H-pyrazol-1-yl)-N-((4-methylmorpholin-2-yl)methyl)nicotinamide]
[1]
  PHD Inhibition (pIC50): 7.8
[2]
  EC50: 1350 nM

## COCC1(CNC(=O)c2ccc(-n3ncc(-c4ccnc(OC)c4)c3O)nc2)CCCC1 [Example 47, 6-(5-hydroxy-4-(2-methoxypyridin-4-yl)-1H-pyrazol-1-yl)-N-((1-(methoxymethyl)cyclopentyl)methyl)nicotinamide]
[1]
  PHD Inhibition (pIC50): 8.4
[2]
  EC50: 355 nM

## COc1cc(-c2cnn(-c3ccc(C(=O)NCC4CCCCO4)cn3)c2O)ccn1 (centres unmarked) [Example 48, 6-(5-hydroxy-4-(2-methoxypyridin-4-yl)-1H-pyrazol-1-yl)-N-((tetrahydro-2H-pyran-2-yl)methyl)nicotinamide]
[1]
  PHD Inhibition (pIC50): 8
[2]
  EC50: 646 nM

## COCC(C)CNC(=O)c1ccc(-n2ncc(-c3ccnc(OC)c3)c2O)nc1 (centres unmarked) [Example 49, 6-(5-hydroxy-4-(2-methoxypyridin-4-yl)-1H-pyrazol-1-yl)-N-(3-methoxy-2-methylpropyl)nicotinamide]
[1]
  PHD Inhibition (pIC50): 7.9
[2]
  EC50: 871 nM

## COc1cc(-c2cnn(-c3ccc(C(=O)NCCC(C)OC)cn3)c2O)ccn1 (centres unmarked) [Example 50, 6-(5-hydroxy-4-(2-methoxypyridin-4-yl)-1H-pyrazol-1-yl)-N-(3-methoxybutyl)nicotinamide]
[1]
  PHD Inhibition (pIC50): 8.1
[2]
  EC50: 871 nM

## COc1cc(-c2cnn(-c3ccc(C(=O)NC(C)(C)CN(C)C)cn3)c2O)ccn1 [Example 51, N-(1-(dimethylamino)-2-methylpropan-2-yl)-6-(5-hydroxy-4-(2-methoxypyridin-4-yl)-1H-pyrazol-1-yl)nicotinamide]
[1]
  PHD Inhibition (pIC50): 7.3
[2]
  EC50: 1820 nM

## COc1cc(-c2cnn(-c3ccc(C(=O)N[C@H]4CC[C@@H](C)CC4)cn3)c2O)ccn1 [Example 52, 6-(5-hydroxy-4-(2-methoxypyridin-4-yl)-1H-pyrazol-1-yl)-N-((1s,4s)-4-methylcyclohexyl)nicotinamide]
[1]
  PHD Inhibition (pIC50): 8.3
[2]
  EC50: 933 nM

## N#Cc1ccc(-c2cnn(-c3ccc(C(=O)NCCC4CC4)cn3)c2O)cc1 [Example 53, 6-(4-(4-cyanophenyl)-5-hydroxy-1H-pyrazol-1-yl)-N-(2-cyclopropylethyl)nicotinamide]
[1]
  PHD Inhibition (pIC50): 7.03
[2]
  EC50: 525 nM

## CC1(C)CC1NC(=O)c1ccc(-n2ncc(-c3ccc(C#N)cc3)c2O)nc1 (centres unmarked) [Example 54, 6-(4-(4-cyanophenyl)-5-hydroxy-1H-pyrazol-1-yl)-N-(2,2-dimethylcyclopropyl)nicotinamide]
[1]
  PHD Inhibition (pIC50): 7.22
[2]
  EC50: 331 nM

## COC(C)(C)CNC(=O)c1ccc(-n2ncc(-c3ccc(C#N)cc3)c2O)nc1 [Example 55, 6-(4-(4-cyanophenyl)-5-hydroxy-1H-pyrazol-1-yl)-N-(2-methoxy-2-methylpropyl)nicotinamide]
[1]
  PHD Inhibition (pIC50): 7.2
[2]
  EC50: 1860 nM

## COCC1(CNC(=O)c2ccc(-n3ncc(-c4ccc(C#N)cc4)c3O)nc2)CC1 [Example 56, 6-(4-(4-cyanophenyl)-5-hydroxy-1H-pyrazol-1-yl)-N-((1-(methoxymethyl)cyclopropyl)methyl)nicotinamide]
[1]
  PHD Inhibition (pIC50): 7.12
[2]
  EC50: 1450 nM

## CN1CCC(CNC(=O)c2ccc(-n3ncc(-c4ccc(C#N)cc4)c3O)nc2)CC1 [Example 57, 6-(4-(4-cyanophenyl)-5-hydroxy-1H-pyrazol-1-yl)-N-((1-methylpiperidin-4-yl)methyl)nicotinamide]
[1]
  PHD Inhibition (pIC50): 6.98
[2]
  Inhibition of PHD in cells (pEC50): 5.70

## CC[C@@H](C)NC(=O)c1ccc(-n2ncc(-c3ccc(C#N)cc3C)c2O)nc1 [Example 58, (R)—N-(sec-butyl)-6-(4-(4-cyano-2-methylphenyl)-5-hydroxy-1H-pyrazol-1-yl)nicotinamide]
[1]
  PHD Inhibition (pIC50): 7.16
[2]
  EC50: 158 nM

## Cc1cc(C#N)ccc1-c1cnn(-c2ccc(C(=O)NC3CCOCC3)cn2)c1O [Example 59, 6-(4-(4-cyano-2-methylphenyl)-5-hydroxy-1H-pyrazol-1-yl)-N-(tetrahydro-2H-pyran-4-yl)nicotinamide]
[1]
  PHD Inhibition (pIC50): 7.33
[2]
  EC50: 70.8 nM

## CCCNC(=O)c1ccc(-n2ncc(-c3ccc(C#N)cc3C)c2O)nc1 [Example 60, 6-(4-(4-cyano-2-methylphenyl)-5-hydroxy-1H-pyrazol-1-yl)-N-propylnicotinamide]
[1]
  PHD Inhibition (pIC50): 7.14
[2]
  EC50: 200 nM

## Cc1cc(C#N)ccc1-c1cnn(-c2ccc(C(=O)NC3(C)CC3)cn2)c1O [Example 61, 6-(4-(4-cyano-2-methylphenyl)-5-hydroxy-1H-pyrazol-1-yl)-N-(1-methylcyclopropyl)nicotinamide]
[1]
  PHD Inhibition (pIC50): 7.19
[2]
  EC50: 79.4 nM

## COC[C@@H](NC(=O)c1ccc(-n2ncc(-c3ccc(C#N)cc3C)c2O)nc1)C(C)C [Example 62, (S)-6-(4-(4-cyano-2-methylphenyl)-5-hydroxy-1H-pyrazol-1-yl)-N-(1-methoxy-3-methylbutan-2-yl)nicotinamide]
[1]
  PHD Inhibition (pIC50): 7.14
[2]
  EC50: 182 nM

## Cc1cc(C#N)ccc1-c1cnn(-c2ccc(C(=O)N[C@H](C)C3CCOCC3)cn2)c1O [Example 63, (R)-6-(4-(4-cyano-2-methylphenyl)-5-hydroxy-1H-pyrazol-1-yl)-N-(1-(tetrahydro-2H-pyran-4-yl)ethyl)nicotinamide]
[1]
  PHD Inhibition (pIC50): 7.25
[2]
  EC50: 158 nM

## Cc1cc(C#N)ccc1-c1cnn(-c2ccc(C(=O)NCCC3CCOCC3)cn2)c1O [Example 64, 6-(4-(4-cyano-2-methylphenyl)-5-hydroxy-1H-pyrazol-1-yl)-N-(2-(tetrahydro-2H-pyran-4-yl)ethyl)nicotinamide]
[1]
  PHD Inhibition (pIC50): 7.25
[2]
  EC50: 158 nM

## COCC(C)(C)NC(=O)c1ccc(-n2ncc(-c3ccc(C#N)cc3C)c2O)nc1 [Example 65, 6-(4-(4-cyano-2-methylphenyl)-5-hydroxy-1H-pyrazol-1-yl)-N-(1-methoxy-2-methylpropan-2-yl)nicotinamide]
[1]
  PHD Inhibition (pIC50): 7.08
[2]
  EC50: 182 nM

## Cc1cc(C#N)ccc1-c1cnn(-c2ccc(C(=O)NCCC3CCOC3)cn2)c1O (centres unmarked) [Example 66, 6-(4-(4-cyano-2-methylphenyl)-5-hydroxy-1H-pyrazol-1-yl)-N-(2-(tetrahydrofuran-3-yl)ethyl)nicotinamide]
[1]
  PHD Inhibition (pIC50): 7.22
[2]
  EC50: 120 nM

## COCCC(C)(C)NC(=O)c1ccc(-n2ncc(-c3ccc(C#N)cc3C)c2O)nc1 [Example 67, 6-(4-(4-cyano-2-methylphenyl)-5-hydroxy-1H-pyrazol-1-yl)-N-(4-methoxy-2-methylbutan-2-yl)nicotinamide]
[1]
  PHD Inhibition (pIC50): 7.11
[2]
  EC50: 219 nM

## CO[C@H]1CC[C@H](NC(=O)c2ccc(-n3ncc(-c4ccc(C#N)cc4C)c3O)nc2)CC1 [Example 68, 6-(4-(4-cyano-2-methylphenyl)-5-hydroxy-1H-pyrazol-1-yl)-N-((1r,4r)-4-methoxycyclohexyl)nicotinamide]
[1]
  PHD Inhibition (pIC50): 7.44
[2]
  EC50: 50.1 nM

## COCCC(C)NC(=O)c1ccc(-n2ncc(-c3ccc(C#N)cc3C)c2O)nc1 (centres unmarked) [Example 69, 6-(4-(4-cyano-2-methylphenyl)-5-hydroxy-1H-pyrazol-1-yl)-N-(4-methoxybutan-2-yl)nicotinamide]
[1]
  PHD Inhibition (pIC50): 7.22
[2]
  EC50: 89.1 nM

## Cc1cc(C#N)ccc1-c1cnn(-c2ccc(C(=O)NCCCOCC3CC3)cn2)c1O [Example 70, 6-(4-(4-cyano-2-methylphenyl)-5-hydroxy-1H-pyrazol-1-yl)-N-(3-(cyclopropylmethoxy)propyl)nicotinamide]
[1]
  PHD Inhibition (pIC50): 7.17
[2]
  EC50: 229 nM

## Cc1cc(C#N)ccc1-c1cnn(-c2ccc(C(=O)NC(CO)C3CCOC3)cn2)c1O (centres unmarked) [Example 71, 6-(4-(4-cyano-2-methylphenyl)-5-hydroxy-1H-pyrazol-1-yl)-N-(2-hydroxy-1-(tetrahydrofuran-3-yl)ethyl)nicotinamide]
[1]
  PHD Inhibition (pIC50): 7.24
[2]
  EC50: 269 nM

## N#Cc1ccc(-c2cnn(-c3ccc(C(=O)NC4CCNCC4)cn3)c2O)cc1 [Example 72]
[1]
  PHD Inhibition (pIC50): 7.8
[2]
  EC50: 2880 nM

## CC[C@H](CC#N)NC(=O)c1ccc(-n2ncc(-c3ccc(C#N)cc3)c2O)nc1 [Example 74, (R)—N-(1-cyanobutan-2-yl)-6-(4-(4-cyanophenyl)-5-hydroxy-1H-pyrazol-1-yl)nicotinamide]
[1]
  PHD Inhibition (pIC50): 7.05
[2]
  EC50: 3160 nM

## N#Cc1ccc(-c2cnn(-c3ccc(C(=O)NC4CCCCC4)cn3)c2O)cc1 [Example 75, 6-(4-(4-cyanophenyl)-5-hydroxy-1H-pyrazol-1-yl)-N-cyclohexylnicotinamide]
[1]
  PHD Inhibition (pIC50): 7.28
[2]
  EC50: 1700 nM

## CN1CC(NC(=O)c2ccc(-n3ncc(-c4ccc(C#N)cc4)c3O)nc2)C1 [Example 76, 6-(4-(4-cyanophenyl)-5-hydroxy-1H-pyrazol-1-yl)-N-(1-methylazetidin-3-yl)nicotinamide]
[1]
  PHD Inhibition (pIC50): 6.68
[2]
  EC50: 3090 nM
